# Results: patent publication US20060270677A1, “Method for the treatment of noise phobia in companion animals” (Wyeth, priority 2005, published 2006)
# Assay: in vivo
# Details: male, Beagle, dog, po
# From the text: In this evaluation 8 male Beagle breed dogs, 6 months to 2 years of age, and at least 10 kg in weight were used. Dogs were housed in individual indoor cages in compliance with standards outlined in the Guide for the Care and Use of Laboratory Animals of the Institute of Laboratory Animal resources, National Research Council. The dogs were fed an appropriate amount of standard commercial dry ration once per day. Fresh tap water in water bowls was provided ad libitum. On the day before the test compounds were administered, food was removed from the dogs by 4:00 pm. Food was withheld until after taking blood samples at the 4 h time point after administration of test materials. Dogs were weighed and ranked by descending weight order and were given physical exams by a veterinarian. The two heaviest dogs were randomly assigned to Group 1 or 2. The second two heaviest dogs were randomly assigned to Group 1 or 2 and so on, until all 8 dogs were placed into either of the two groups. Group 1 with 4 dogs/group, was treated orally with 15 mg/kg of the acetamide test compound and Group 2 was treated orally with 15 mg/kg of the carbonitrile test compound. One week after treatment all dogs were reweighed to ensure correct dosing. Two weeks after treatment, Group 1 was treated orally with 30 mg/kg of the acetamide test compound and Group 2 was treated orally with 30 mg/kg of the carbonitrile test compound. A treatment vial containing an appropriate amount of test compound was provided for each dog. The appropriate amount of vehicle (water containing 0.5% Methocel A4M and 0.01% polysorbate 80) was added to the vial and the contents of the vial were thoroughly mixed. The resultant suspension was withdrawn with an unarmed disposable 12 ml plastic syringe and administered to the dog. Test suspensions were administered to the back of the throat to ensure that they were reliably and completely swallowed by the dog. The vials were rinsed with 0.5 ml vehicle per kg of body weight and the rinsate was administered to the dog. Blood samples were collected at regular time intervals and analyzed for concentration of test compound. The Cmax value (the maximum compound concentration in the plasma) and the Tmax value (the time, after dosing, at which the peak compound concentration was obtained) were determined by observation. For Table I, the term “Acetamide” designates N-methyl-N-[3-(3-methyl-1,2,4-triazolo-[4,3-b]pyridazin-6-yl)phenyl]acetamide; and the term “Carbonitrile” designates 7-(3-pyridyl)pyrazolo[1,5-a]pyrimidine-3-carbonitrile.
structure (smiles),measurement,setting,value
"N#Cc1cnn2c(-c3cccnc3)ccnc12 [Carbonitrile, 7-(3-pyridyl)pyrazolo[1,5-a]pyrimidine-3-carbonitrile]",Cmax,15 mg/kg,3700 ng/mL
same,Tmax,15 mg/kg,4.25 h
same,Cmax,30 mg/kg,6390 ng/mL
same,Tmax,30 mg/kg,8.25 h
